Assay results reported in PubChem BioAssay (NCI).
Values joined by “and” are separate entries in the source; they are usually repeats but may differ in a detail not shown here. Equal values may be shown once.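 Five compound concentrations were applied to cells in 96-well plates for 48 hours; endpoints were derived by simple linear interpolation of the resulting dose-response curve. GI50 is the concentration that inhibits growth by half. TGI: total growth inhibition.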 Where a SMILES comes first, the peptide text is derived from it. [ ]: non-standard residue; d: D form. The star is where a group is joined. ξ: configuration not given here. ξF = NC(Cc1ccccc1)C(=O)O; Cbz = O=C(OCc1ccccc1)*; Aib = CC(C)(N)C(=O)O

Columns and labels:
Test in all cases: NCI-60 cell line screen, 48 h
COLO 205 colon = system: COLO 205 colon
HCC-2998 colon = system: HCC-2998 colon
HCT-116 colon = system: HCT-116 colon
IGROV1 ovarian = system: IGROV1 ovarian
LOX IMVI melanoma = system: LOX IMVI melanoma
SK-MEL-28 melanoma = system: SK-MEL-28 melanoma
TK-10 renal = system: TK-10 renal
UACC-62 melanoma = system: UACC-62 melanoma
SN12C renal = system: SN12C renal
SF-539 CNS = system: SF-539 CNS

SMILES	TGI (COLO 205 colon)	TGI (HCC-2998 colon)	TGI (HCT-116 colon)	TGI (IGROV1 ovarian)	TGI (LOX IMVI melanoma)	TGI (SK-MEL-28 melanoma)	TGI (TK-10 renal)	TGI (UACC-62 melanoma)	TGI (SN12C renal)	TGI (SF-539 CNS)	GI50 (COLO 205 colon)	GI50 (HCC-2998 colon)	GI50 (HCT-116 colon)	GI50 (IGROV1 ovarian)	GI50 (LOX IMVI melanoma)	GI50 (SF-539 CNS)	GI50 (SK-MEL-28 melanoma)	GI50 (SN12C renal)	GI50 (TK-10 renal)	GI50 (UACC-62 melanoma)
CCOC(=O)CNC(=O)C(Cc1ccccc1)NC(=O)C(C)(C)NC(=O)OCc1ccccc1 (configuration not stated) (Cbz-[Aib]-[ξF]-Gly-OEt)	> 100 µM	> 100 µM	> 100 µM	> 100 µM	> 100 µM	33.2 µM	> 100 µM	40.9 µM												
CN(Cc1cn(O)c2nc(=N)nc(N)c-2n1)c1ccc(C(=O)NC23CC4CC(CC(C4)C2)C3)cc1	> 100 µM		> 100 µM	> 100 µM	> 100 µM	> 100 µM	> 100 µM	> 100 µM	> 100 µM											
CC1(CO)COS(=O)OC1 (configuration not stated)	> 100 µM	> 100 µM	> 100 µM		> 100 µM	> 100 µM	> 100 µM		> 100 µM											
COc1cc(/C=N/c2nc3cc4sc(/N=C/c5cc(OC)c(OC)c(OC)c5)nc4cc3s2)cc(OC)c1OC	> 100 µM	> 100 µM	> 100 µM	> 100 µM	> 100 µM	39.1 µM	> 100 µM	> 100 µM	> 100 µM	40.8 µM										
OCC(O)CNc1ncnc2ccccc12 (configuration not stated)	> 100 µM	> 100 µM	> 100 µM	> 100 µM	> 100 µM	> 100 µM	> 100 µM	> 100 µM	> 100 µM											
COc1ccc(-c2nc3c(nc2-c2ccc(OC)cc2)C(N)=NS(=O)(=O)N3)cc1	> 100 µM	> 100 µM		> 100 µM	> 100 µM	> 100 µM	> 100 µM	> 100 µM	> 100 µM	> 100 µM										
CC1C(=O)CC(c2cccs2)N(N=O)C1c1cccs1 (configuration not stated)	> 100 µM	> 100 µM	> 100 µM	> 100 µM	> 100 µM	> 100 µM		> 100 µM	> 100 µM	> 100 µM										
O=C1c2cccnc2C(=O)c2c1c(C(=O)OCCN1CCCCC1)c1ccccn21	0.169 µM	1.57 µM	1.95 µM	2.94 µM	0.095 µM	2.19 µM	0.43 µM	0.069 µM	0.479 µM	0.155 µM	0.0481 µM	0.0788 µM	0.041 µM	0.145 µM	0.0172 µM	0.0174 µM	0.21 µM	0.0138 µM	0.0978 µM	0.0121 µM
CCN(CC)CC[n+]1ccc2c(C)c3[nH]c4ccc(O)cc4c3c(C)c2c1	17.4 µM and 31 µM	22.6 µM and 85.4 µM	26.7 µM and 30.8 µM	38.6 µM and 73 µM	44 µM and 58.3 µM	21.3 µM and 44.8 µM		23.1 µM and 48.9 µM	6.42 µM and 3.25 µM	19 µM and 31.8 µM	2.6 µM	6.94 µM	4.36 µM	4.79 µM	6.73 µM		9.07 µM	0.211 µM		5.41 µM
S=c1c2[nH]cnc2ncn1CCSC1=NC=NC2=NC=NC21 (configuration not stated)	> 100 µM	> 100 µM	> 100 µM	> 100 µM	> 100 µM	> 100 µM	> 100 µM	> 100 µM	> 100 µM	> 100 µM										
CC(C)(C)c1ccc2c(c1)C#Cc1cc(C(C)(C)C)ccc1OCCCO2	> 100 µM		> 100 µM	> 100 µM	> 100 µM	> 100 µM	> 100 µM	> 100 µM	> 100 µM											
CNC1Cc2c[nH]c3cccc(c23)C12C=C(C)C(=O)O2 (configuration not stated)	> 100 µM	> 100 µM	> 100 µM	> 100 µM	> 100 µM	> 100 µM	> 100 µM	> 100 µM	> 100 µM	> 100 µM										
NC(CCOCCP(=O)(O)CCC1C=CC=CC1)C(=O)O (configuration not stated)	> 100 µM	> 100 µM	> 100 µM	> 100 µM	> 100 µM	> 100 µM	> 100 µM	> 100 µM	> 100 µM	> 100 µM										
CCOC(=O)CCC(C(=O)OCC)n1nc2ccc(Nc3c(C)[n+]([O-])c4cc(F)c(OCC)cc4[n+]3[O-])cc2n1 (configuration not stated)	> 100 µM	> 100 µM	> 100 µM	> 100 µM	> 100 µM		> 100 µM	> 100 µM	> 100 µM	63.1 µM										
CSc1nc(CO)c(CO)n1C	> 100 µM	> 100 µM	> 100 µM	> 100 µM	> 100 µM	> 100 µM		> 100 µM	> 100 µM	> 100 µM										
Cc1[nH]c(=O)[nH]c(=O)c1/C=C/C(=O)NC(CO)CS(=O)CS(C)=O (configuration not stated)	132 µM	53.8 µM	129 µM	103 µM	86.9 µM	69.8 µM		56.3 µM	91.5 µM	51.5 µM										
